Reference: US20250146080A1, “METHODS FOR OVERCOMING TAZEMETOSTAT-RESISTANCE IN CANCER PATIENTS” (MEMORIAL SLOAN-KETTERING CANCER CENTER, priority 2022, published 2025)
Like-named read-outs stand apart in the source and are kept apart here. Values belong to the molecule of their own block, whether it stands above or below them.

Key:
[1] = system: EZH2^Y666N expressing G401 rhabdoid tumor cells; assay: Cell viability (CellTiter-Glo), G401 clones expressing doxycycline-inducible EZH2^Y666N; format: cell-based; conditions: 10 μM drug, 14 days
Description: (§1) Drug and media were replaced on Days 4, 7, and 11. CellTiter-Glo assays were performed on Day 14, with luminescence readings taken using an automated fluorescence plate reader (Tecan). CellTiter-Glo reagent was freshly reconstituted on the day of measurement and added in a 1:1 proportion to cell media. […] Cell line doubling time was determined by measuring cell viability every 24 hours over the course of 4 days, and fitting the cell viability to a two-parameter exponential curve. […] After the addition of cells, drugs were added using a pin tool (stainless steel pins with 50 nL slots, V&P Scientific) mounted onto a liquid handling robot (CyBio Well vario, Analytik Jena). For analysis of synergy, we used the synergyFinder package (2). Outliers due to pinning errors were excluded after manual examination.

CHK1 = target: T1, CHK1 (Homo sapiens, UniProt O14757); assay: Western blot of CHK1 autophosphorylation at S296; format: cell-based; conditions: SRA737 3 μM, 2 days
T1 construct: endogenous in cells; host or cells: G401 rhabdoid tumor cells
T1 sequence (O14757 1-476): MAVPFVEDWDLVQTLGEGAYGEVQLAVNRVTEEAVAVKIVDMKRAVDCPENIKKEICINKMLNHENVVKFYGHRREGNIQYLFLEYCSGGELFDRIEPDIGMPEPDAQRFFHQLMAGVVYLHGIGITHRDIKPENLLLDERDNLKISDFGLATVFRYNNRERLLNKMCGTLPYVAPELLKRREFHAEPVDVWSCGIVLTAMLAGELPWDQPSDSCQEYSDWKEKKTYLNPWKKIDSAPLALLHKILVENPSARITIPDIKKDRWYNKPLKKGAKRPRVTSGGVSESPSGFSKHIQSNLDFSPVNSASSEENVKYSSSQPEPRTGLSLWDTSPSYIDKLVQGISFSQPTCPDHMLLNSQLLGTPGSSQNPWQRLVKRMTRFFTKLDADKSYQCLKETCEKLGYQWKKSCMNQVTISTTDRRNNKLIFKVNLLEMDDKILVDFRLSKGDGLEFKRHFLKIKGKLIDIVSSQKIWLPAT
Description: To assess protein expression by Western immunoblotting, pellets of 1 million cells were prepared and washed once in cold PBS. Cells were resuspended in 100-130 μL of RIPA lysis buffer (50 mM Tris-HCl, pH 8.0, 150 mM NaCl, 1.0% NP-40, 0.5% sodium deoxycholate, 0.1% sodium dodecyl sulfate) and incubated on ice for 10 minutes. Cell suspensions were then disrupted using a Covaris S220 adaptive focused sonicator for 5 minutes (peak incident power: 35W, duty factor: 10%, 200 cycles/burst) at 4° C. Lysates were cleared by centrifugation at 18,000 g for 15 min at 4° C. Protein concentration was assayed using the DC Protein Assay (Bio-Rad) and 15-35 μg whole cell extract was used per sample. Samples were boiled at 95° C. in Laemmli buffer (Bio-Rad) with 40 mM DTT and resolved using sodium dodecyl sulfate-polyacrylamide gel electrophoresis. Proteins were transferred to Immobilon FL PVDF membranes (Millipore), and membranes were blocked using Intercept Blocking buffer (Li-Cor). […] Blotted membranes were visualized using goat secondary antibodies conjugated to IRDye 680RD or IRDye 800CW (Li-Cor, 926-68071 and 926-32210) at 1:15,000 and the Odyssey CLx fluorescence scanner, according to manufacturer's instructions (Li-Cor). […]

MRT and ES cell lines = assay: TAZ dose-response curves in a panel of MRT and ES cell lines; format: cell-based; conditions: 13 days, AUC integrated from 40 nM to 50 μM
Description: as §1

RB1^WT G401 cells [2] = assay: Flow cytometry cell cycle analysis (EdU/propidium iodide), G401 RB1^WT; format: cell-based; conditions: 1 μM TAZ, 11 days
Description: (§2) On Day 11, cells were pulsed with EdU for 1 hour. Cells were then harvested and processed for flow cytometry using the manufacturer's protocol (Click-iT, Invitrogen). Briefly, cells were washed with PBS with 1% BSA, permeabilized, and incubated with AlexaFluor647 for 30 minutes. DNA content was measured using propidium iodide (0.05 μg/μL). Cells were analyzed on a CytoFLEX LX (Beckman Coulter).

G401 cells = conditions: single drug, 7 days; DMSO 0.061
Description: Immunofluorescence for γH2AX was performed on cells plated on Millicell EZ Slide glass slides (EMD Millipore), coated for 45 minutes with bovine plasma fibronectin (Millipore Sigma). After drug treatment, cells were washed once with PBS and fixed in 4% formaldehyde for 10 minutes at room temperature. Slides were then washed three times in PBS for 5 minutes, permeabilized for 15 minutes in 0.3% Triton X-100, washed again in PBS three times, and blocked with 5% goat serum (Millipore Sigma, G9023) in PBS for 1 hour at room temperature. Slides were incubated with mouse anti-γH2A.X primary antibody (Sigma-Aldrich, 05-636) at 1:500 in blocking buffer for 1 hour, washed three times in PBS, and incubated with goat anti-mouse secondary antibody conjugated to AlexaFluor555 (Invitrogen, A-21422) at 1:1,000. Cells were then counterstained with DAPI at 1:1,000 for 10 minutes and treated with ProLong Diamond Antifade Mountant with DAPI (Invitrogen, P36962) for 48 hours.
Images were acquired on a Leica SP5 confocal microscope in the upright configuration at 63× magnification. Images were then processed using a custom pipeline in CellProfiler (6). Per-cell integrated γH2A.X intensity was normalized against per-cell integrated DAPI intensity.

RB1^del G401 cells [3] = assay: Flow cytometry cell cycle analysis (EdU/propidium iodide), G401 RB1^del clones; format: cell-based; conditions: 1 μM TAZ, 11 days
Description: as §2

RB1^del G401 cells [4] = assay: Cell viability (CellTiter-Glo), G401 RB1^del clones E1 and F2; format: cell-based; conditions: for overcoming TAZ resistance in RB1^del G401 cells: seleciclib, alisertib 9 days, barasertib 6 days; for EC50: Homo sapiens, G-401, 144 h, barasertib for 6 days, read-out: half-maximal effective concentration
Description: G401 cells with RB1 mutations were engineered by Synthego. […] Ribonucleprotein containing spCas9 and sgRNA was transfected into G401 cells by electroporation. […] The cells were then single-cell cloned and re-verified by Sanger sequencing.
as §1, with “CellTiter-Glo assays were performed on Day 14, with luminescence readings taken using an automated fluorescence plate reader (Tecan).” left out

RB1^WT G401 cells [5] = assay: Cell viability (CellTiter-Glo) dose response, G401 RB1^WT; format: cell-based; conditions: Homo sapiens, G-401, 144 h, barasertib for 6 days, read-out: half-maximal effective concentration
Description: as §1

SMILES: Cc1ncccc1-c1cnc(NCc2c(F)ccc3c2CCO3)n2cnnc12 [MAK683]
cell viability of EZH2^Y666N clones versus wild-type EZH2 [1]: overcomes EZH2^Y666N-mediated resistance

CHK1 auto-phosphorylation (CHK1): effective suppression
SMILES: N#Cc1cnc(Nc2cc(NC[C@H]3CNCCO3)c(C(F)(F)F)cn2)cn1 [SRA737]

SMILES: CCN(c1cc(-c2ccc(CN3CCOCC3)cc2)cc(C(=O)NCc2c(C)cc(C)[nH]c2=O)c1C)C1CCOCC1 [TAZ, Tazemetostat]
area under the curve (AUC) of TAZ dose responses (MRT and ES cell lines; resistant ES1, VAESBJ, ES2, EPI544, MP-MRT-AN cell lines): ≤ 0.3
area under the curve (AUC) of TAZ dose responses (MRT and ES cell lines; sensitive G401, KP-MRT-NS, TTC642, A204, TM8716, KP-MRT-RY cell lines): > 0.3
proportion of cells in G1 phase upon TAZ treatment (RB1^WT G401 cells [2]): 50%
nuclear γH2AX fluorescence, median normalized level (G401 cells): 0.12
proportion of cells in G1 phase upon TAZ treatment (RB1^del G401 cells [3]; RB1^del E1 clone): 31%
proportion of cells in G1 phase upon TAZ treatment (RB1^del G401 cells [3]; RB1^del F2 clone): 28%

SMILES: COc1cc(Nc2ncc3c(n2)-c2ccc(Cl)cc2C(c2c(F)cccc2OC)=NC3)ccc1C(=O)O [alisertib]
overcoming TAZ resistance in RB1^del G401 cells (RB1^del G401 cells [4]): able to overcome TAZ resistance

SMILES: CCN(CCCOc1ccc2c(Nc3cc(CC(=O)Nc4cccc(F)c4)n[nH]3)ncnc2c1)CCOP(=O)(O)O [barasertib]
EC50 (RB1^del G401 cells [4]; G401 RB1^del E1 clone): 5.5 ± 0.6 nM
EC50 (RB1^del G401 cells [4]; G401 RB1^del F2 clone): 5.9 ± 0.9 nM
EC50 (RB1^WT G401 cells [5]): 6.5 ± 0.5 nM

SMILES: CC[C@H](CO)Nc1nc(NCc2ccccc2)c2ncn(C(C)C)c2n1 [seleciclib]
overcoming TAZ resistance in RB1^del G401 cells (RB1^del G401 cells [4]): able to overcome TAZ resistance

SMILES: Cc1cc(C)c(CNC(=O)c2cc(Cl)c3c(c2C)O[C@@](C)([C@H]2CC[C@H](N(C)C)CC2)O3)c(=O)[nH]1 [valemetostat]
cell viability of EZH2^Y666N clones versus wild-type EZH2 [1]: confers resistance
